“Also recorded” adds a separate entry of the source. Where a name gives a salt, the structure may show the parent alone. Numbered stars: 1 amine (or outer) side, 2 acyl side, 3 side chain; on linkers, the order of the positions; unused ones are H or OH. Bridge positions count the residues as written; N and C are the ends. Square brackets hold non-standard residues; d marks the D form. Peptide text beside a SMILES is read from it. I, II: the chains in the order shown. Actinocin(9to1) = Cc1c2oc3c(C)ccc(C(=O)[*:1])c3nc-2c(C(=O)[*:2])c(N)c1=O; NMeV = CN[C@H](C(=O)O)C(C)C; Sar = CNCC(=O)O
Columns and labels:
rat PKC = conditions: O'Brian et al; cited from earlier work
MCF-7/DOX cells = assay: Inhibition of cell growth / reversal of MDR in MCF-7/DOX cells (methylene blue); assay type: cell-based, human; conditions: for Effectiveness in reversing MDR: MCF-7/DOX cells, Table 5 and FIG. 7; for Inhibition of cell growth, Actual: 2880 min
Protocol: The cells were cultivated in 100 ul volumes in 96-well microtiter plates. The principle of the method was to cultivate cells in the presence of the drugs/ drug combinations for 48 hours. After this time the living cells were stained with methylene blue and quantitated spectrophotometrically using microtiter plate reader (Titertek Model MCC/340) interfaced to an Apple IIe computer. Inhibition of the cell growth is expressed as a percentage of absorbance of vehicle treated control cultures.

PKC = conditions: Horgan et al; cited from earlier work
cultured cells = conditions: Sutherland et al; cited from earlier work
[1] = at dose levels or concentrations required for MDR reversal; cited from earlier work
[2] = system: MCF-7 oestrogen receptor positive breast cancer cell line; conditions: Foster et al, cited from earlier work; for Modulation of multidrug resistance: 10 μM tamoxifen or perhexilene maleate
MDR cell = conditions: Ramu et al; cited from earlier work
CHO-Adr cells = assay: MTT cell viability assay in doxorubicin resistant CHO-Adr cells; conditions: CHO-Adr cell line
Protocol: Initial cell growth studies were carried out to investigate the effect of combination toremifene +doxorubicin in doxorubicin sensitive and resistant cells. Cell cultures were carried out using wild type CHO-K1 cells as well as CHO-Adr cells, the latter being selected by a series of step-wise selections of doxorubicin resistant clones in presence of 0.4 ug/ml of doxorubicin. […] The resistant cells were stable in cell culture in the absence of doxorubicin. Both cell lines were cultivated in Hams F10 medium supplemented with 5% newborn calf serum, 5% foetal calf serum, antibiotics and 3mM glutamine. The cells were maintained as monolayer cultures 37° C. under 5% CO2. Drug sensitivity in CHO-K1and CHO-Adr cells was assessed by a semi-automated colorimetric MTT assay. The assay is dependent on the cellular reduction of MTT (3-U4,5-dimethylthiazol-2-ylA-2,5-diphenyl tertazolium bromide, thiazolyl blue) by the mitochondrial dehydrogenase of viable cells to a blue formazan product which was measured spectrophotometrically. The cells were seeded on 96-well plates and allowed to settle for 12 hours at 37° C. in 5% CO2. Appropriate drug concentrations diluted in growth medium were added for 24 hours. Toremifene was dissolved in 95% ethanol stock solution, doxorubicin stock solution was prepared in water. […] The cells were incubated with the drugs for 24 hours, after which the cells were washed twice with phosphate buffered saline before being placed in 200 μl fresh medium for a further 48 hours. At the end of this incubation 0.1 mg MTT was added to each well and incubated for 4 hours. The medium was carefully aspirated and the crystals were solubilised in 100 μ l DMSO (dimethyl sulfoxide). Absorbances at 540 nm were read immediately on an ELISA Multiskan reader. The results were expressed as a percentage of absorbance of drug treated cells compared to controls.
The effect of AAG in the concentration of 0.1 to 2 mg/ml was assessed on the potentiation produced by toremifene.

Human melanoma UV-me-1 = assay: Toremifene and doxorubicin in human melanoma UV-me-1; conditions: for Toremifene and doxorubicin in UV-me-1 (living cells): toremifene 0 μM, 2 days, control 100
B-16 melanoma = assay: Schedule dependency of antitumor effect in B-16 melanoma
Protocol: (§1) Lewis Lung (LL) or melanoma B-16 tumor cells, 2×10^6 cells/animal, were inoculated intramuscularly to female C-57 mice. Tumors were allowed to grow to the mean diameter of 1.5 cm after which toremifene/doxorubicin treatments were started as indicated in the next tables. Tumor size was measured before treatment and after 10 days in 2 dimensions and the mean was considered as tumor diameter. Weight of the animals was also recorded.

HOV-018 = assay: Number of living cells (bioluminescence), ovarian cancer line HOV-018; conditions: toremifene 0 μM, 4320 min
Protocol: (§2) Two human ovarian cell lines were established in vitro from fresh serous ovarian cancer tissues. The lines are coded HOV-007 and HOV-018. The cells were cultivated in Eagle's MEM containing 1% unstripped foetal calf serum. The assays were carried out at 37° C. in 5% CO2 on 96 well plates.

Lewis Lung (LL) tumor = assay: Schedule dependency of antitumor effect in Lewis Lung tumor
Protocol: as §1

HOV-007 = assay: Number of living cells (bioluminescence), ovarian cancer line HOV-007; conditions: toremifene 0 μM, 3 days
Protocol: as §2
presented. Number of cells was quantitated after 3 days'

[3] = drug 0.6 μg/ml +1 μM doxorubicin
[4] = doxorubicin 3 mg/kg s.c. days 1-5
[5] = doxorubicin 3 mg/kg s.c. days 6-10

CCC(=C(c1ccc(O)cc1)c1ccc(OCCN(C)C)cc1)c1ccccc1 [4-hydroxy tamoxifen]
Inhibition of rat PKC activity in vitro (rat PKC): inhibition of rat PKC activity in vitro

CN(C)CCOc1ccc(C(=C(CCCl)c2ccccc2)c2ccc(O)cc2)cc1 [4-hydroxytoremifene, 4-chloro-1-(4-hydroxyphenyl)-2-phenyl-1-(4-(2-(N,N-dimethylamino)ethoxy)phenyl)-1-butene]
Effectiveness in reversing MDR (MCF-7/DOX cells): slightly less effective | Inhibition of cell growth, Actual (MCF-7/DOX cells; [3]): 28 % control | Potential (potentiation of doxorubicin activity) (MCF-7/DOX cells; [3]): 8 % control | Inhibition of cell growth, Actual (MCF-7/DOX cells; drug […] +1 μM doxorubicin): 45 % control | Potential (potentiation of doxorubicin activity) (MCF-7/DOX cells; drug […] +1 μM doxorubicin): 10 % control

CNCCOc1ccc(C(=C(CCCl)c2ccccc2)c2ccccc2)cc1 [N-demethyltoremifene, 4-chloro-1,2-diphenyl-1-(4-(2-(N-methylamino)ethoxy)phenyl)-1-butene]
Effectiveness in reversing MDR (MCF-7/DOX cells): almost equally effective | Inhibition of cell growth, Actual (MCF-7/DOX cells; [3]): 28 % control | Potential (potentiation of doxorubicin activity) (MCF-7/DOX cells; [3]): 33 % control | Inhibition of cell growth, Actual (MCF-7/DOX cells; drug […] +1 μM doxorubicin): 40 % control | Potential (potentiation of doxorubicin activity) (MCF-7/DOX cells; drug […] +1 μM doxorubicin): 43 % control

CC/C(=C(\c1ccccc1)c1ccc(OCCN(C)C)cc1)c1ccccc1 [Tamoxifen, tamoxifen]
Inhibition of PKC activity in vivo (PKC): inhibition of PKC activity in vivo | Reversal by oestradiol of growth inhibitory effects of high doses (cultured cells): could not be reversed by oestradiol | Effectiveness in reversing MDR (MCF-7/DOX cells): almost equally effective | Safety / toxicity in clinical use [1]: higher toxicity | Inhibition of rat PKC activity in vitro (rat PKC): inhibition of rat PKC activity in vitro | Modulation of multidrug resistance [2]: modulation of multidrug resistance; also recorded: possess activity for reversing MDR | C14-doxorubicin accumulation [2]: no increase in C14-doxorubicin accumulation | Effect of 50 nM estradiol on the effects of tamoxifen [2]: did not attenuate the effects of tamoxifen | Reversal of MDR by triparonol analogues (MDR cell): reversal of MDR

Cc1c2oc3c(C)ccc(C(=O)N[C@@H]4C(=O)N[C@H](C(C)C)C(=O)N5CCC[C@H]5C(=O)N(C)CC(=O)N(C)[C@@H](C(C)C)C(=O)O[C@@H]4C)c3nc-2c(C(=O)N[C@@H]2C(=O)N[C@H](C(C)C)C(=O)N3CCC[C@H]3C(=O)N(C)CC(=O)N(C)[C@@H](C(C)C)C(=O)O[C@@H]2C)c(N)c1=O [actinomycin D, reference compound] (I: T[dV]P[Sar][NMeV] / II: T[dV]P[Sar][NMeV]; ester I:1-I:C, II:1-II:C; linker I:N-II:N via Actinocin(9to1))
Resistance of the CHO-Adr cell line (CHO-Adr cells): cross-resistant

CCN(CC)CCOc1ccc(C(=C(Cl)c2ccccc2)c2ccccc2)cc1 [clomiphene]
Reversal of MDR by triparonol analogues (MDR cell): reversal of MDR

COc1cc2c(c(OC)c1OC)-c1ccc(OC)c(=O)cc1[C@@H](NC(C)=O)CC2 [colchicine, reference compound]
Resistance of the CHO-Adr cell line (CHO-Adr cells): cross-resistant

COc1cccc2c1C(=O)c1c(O)c3c(c(O)c1C2=O)C[C@@](O)(C(C)=O)C[C@@H]3O[C@H]1C[C@H](N)[C@H](O)[C@H](C)O1 [daunorubicin, reference compound]
Resistance of the CHO-Adr cell line (CHO-Adr cells): cross-resistant

COc1cccc2c1C(=O)c1c(O)c3c(c(O)c1C2=O)C[C@@](O)(C(=O)CO)C[C@@H]3O[C@H]1C[C@H](N)[C@H](O)[C@H](C)O1 [doxorubicin]
Sensitivity of the cell line (Human melanoma UV-me-1; UV-me-1): relatively sensitive | Toremifene and doxorubicin in UV-me-1 (living cells) (Human melanoma UV-me-1; doxorubicin 0.1 μg/ml): 74 | Toremifene and doxorubicin in UV-me-1 (living cells) (Human melanoma UV-me-1; doxorubicin 1.0 μg/ml): 9 | Change of body weight (B-16 melanoma; [4]): -5 g | Change of tumor size (B-16 melanoma; [4]): +1.9 mm | Change of body weight (B-16 melanoma; [5]): -2 g | Change of tumor size (B-16 melanoma; [5]): +3.1 mm | Number of living cells (HOV-018; doxorubicin 0.1 μg/ml): 96% of control values | Number of living cells (HOV-018; doxorubicin 0.3 μg/ml): 89% of control values | Change of body weight (Lewis Lung (LL) tumor; [4]): -2 g | Change of tumor diameter (Lewis Lung (LL) tumor; [4]): +2.0 mm | Change of body weight (Lewis Lung (LL) tumor; [5]): +10 g | Change of tumor diameter (Lewis Lung (LL) tumor; [5]): +3.7 mm | Number of living cells (HOV-007; doxorubicin 0.1 μg/ml): 87% of control values | Number of living cells (HOV-007; doxorubicin 0.3 μg/ml): 64% of control values | Number of living cells (HOV-007; doxorubicin 1.0 μg/ml): 41% of control values | Resistance of the CHO-Adr cell line (CHO-Adr cells): resistant

COc1ccc2c(c1)CCC(c1ccccc1)=C2c1ccc(OCCN2CCCC2)cc1 [nafoxidine]
Reversal of MDR by triparonol analogues (MDR cell): reversal of MDR

C1CCC(C(CC2CCCCN2)C2CCCCC2)CC1 (stereo not shown) [perhexilene maleate, perhexiline maleate]
Modulation of multidrug resistance [2]: modulation of multidrug resistance

Source: patent US4990538A, “Use of toremifene and its metabolites for the reversal of multidrug resistance of cancer cells against cytotoxic drugs” (priority 1989, dated 1991)
